# Reference: PMC9765455 (Science Translational Medicine, 2022)
# Where “and” joins values, the source holds several entries; their conditions need not be identical. Identical values can stand only once. Like-named read-outs stand apart in the source and are kept apart here.
# Legend:
# SARS-CoV-2 Delta variant [1] = experiment: Antiviral activity of main protease inhibitors with P-gp inhibitor CP-100356 (intracellular viral RNA); assay type: cell-based; settings: Vero-TMPRSS2; S-217622 100 nM, nirmatrelvir 300 nM; CP-100356 1 μM
# SARS-CoV-2 Delta variant [2] = assay type: cell-based; settings: Vero-TMPRSS2 and Calu-3 cells
# SARS-CoV-2 Delta variant [3] = test system: SARS-CoV-2 Delta variant; parameters: species or system Syrian hamsters; settings: hamster, in vivo
# SARS-CoV-2 Delta variant [4] = experiment: Time of addition assay in Calu-3 cells; assay type: cell-based
# SARS-CoV-2 Delta variant [5] = test system: SARS-CoV-2 Delta variant; parameters: species or system Syrian hamsters; settings: hamster, in vivo; remark: listed apart in the source
# SARS-CoV-2 Delta variant [6] = experiment: Light sheet microscopy of whole lungs (viral antigen distribution); parameters: species or system Syrian hamsters; settings: hamster, in vivo
# [7] = test system: SARS-CoV-2 Omicron variant (lineage BA.1); assay type: cell-based; settings: Vero-TMPRSS2, fig. S5
# SARS-CoV-2 Delta variant [8] = assay type: cell-based; settings: HBE cells
# SARS-CoV-2 Delta variant [9] = assay type: cell-based; settings: HBE cells, 333 nM or more; detection limit of the plaque assay
# SARS-CoV-2 Delta variant [10] = assay type: cell-based; settings: Vero-TMPRSS2 and Calu-3 cells; remark: listed apart in the source
# SARS-CoV-2 Delta variant [11] = assay type: in vivo, Syrian hamsters; settings: for viral load in the lungs of contact hamsters: 6 days after co-housing
# SARS-CoV-2 Delta variant [12] = assay type: in vivo, Syrian hamsters; settings: for lung pathology / histopathological findings of viral pneumonia: hamster, in vivo; for histopathological severity of viral pneumonia / viral RNA by ISH: therapeutic treatment
# [13] = prophylactic, MPV, S-217622 30 mg/kg
# [14] = prophylactic, S-217622 200 mg/kg
compound,measurement,setting,value
CC(C)(C)[C@H](NC(=O)C(F)(F)F)C(=O)N1C[C@H]2[C@@H]([C@H]1C(=O)N[C@H](C#N)C[C@@H]1CCNC1=O)C2(C)C [Nirmatrelvir],effect of CP-100356 on antiviral activity,SARS-CoV-2 Delta variant [1],enhanced
Cn1cnc(Cn2c(=O)[nH]/c(=N\c3cc4cn(C)nc4cc3Cl)n(Cc3cc(F)c(F)cc3F)c2=O)n1 [S-217622],progeny viral RNA in the culture supernatants,SARS-CoV-2 Delta variant [2],reduced the progeny viral RNA
same,antiviral activity compared with nirmatrelvir in hamsters,SARS-CoV-2 Delta variant [3],higher antiviral activity than nirmatrelvir
same,body weight,SARS-CoV-2 Delta variant [3],continuously gained weight
same,decrease in viral RNA load,SARS-CoV-2 Delta variant [3],more than 10^5 fold
same,expression of inflammatory cytokines,SARS-CoV-2 Delta variant [3],decreased the expression of inflammatory cytokines
same,seroconversion,SARS-CoV-2 Delta variant [3],No seroconversion was observed
same,virus titers,SARS-CoV-2 Delta variant [3],under the detection limit
same,Fig. 2D: Viral RNA,SARS-CoV-2 Delta variant [3]; 30 mg/kg,9351446 and 5264474 and 6254487 and 4687980
same,Fig. 2F: Virus titer,SARS-CoV-2 Delta variant [3]; 30 mg/kg,2500000 and 1700000 and 2600000 and 3300000
same,Fig. 2I: Relative Il6 RNA level,SARS-CoV-2 Delta variant [3]; 30 mg/kg,1.88 and 3.04 and 1.64 and 1.56
same,Fig. 2K: Relative Cxcl10 RNA level,SARS-CoV-2 Delta variant [3]; 30 mg/kg,5.91 and 3.38 and 3.37 and 5.99
same,Fig. 2L: Neutralizing antibody titer,SARS-CoV-2 Delta variant [3]; 30 mg/kg,160 and 320
same,Fig. 2F: Virus titer,SARS-CoV-2 Delta variant [3]; 200 mg/kg,n.d.(=100)
same,Fig. 2G: Virus titer,SARS-CoV-2 Delta variant [3]; 200 mg/kg,n.d.(=100)
same,Fig. 2I: Relative Il6 RNA level,SARS-CoV-2 Delta variant [3]; 200 mg/kg,1.73 and 2.57 and 2.07 and 2.20
same,Fig. 2K: Relative Cxcl10 RNA level,SARS-CoV-2 Delta variant [3]; 200 mg/kg,0.55 and 0.70 and 0.74 and 0.64
same,Fig. 2L: Neutralizing antibody titer,SARS-CoV-2 Delta variant [3]; 200 mg/kg,n.d.(=10)
same,Fig. 1I: Relative viral RNA to mock treated,"SARS-CoV-2 Delta variant [4]; Both stages, third column group c10-c13",0.047 and 0.045 and 0.032
same,effect on cellular entry process (0 to 2 hpi),"SARS-CoV-2 Delta variant [4]; Calu-3, 1 μM",but not the cellular entry process of infection
same,effect on post-entry process (2 to 7 hpi),"SARS-CoV-2 Delta variant [4]; Calu-3, 1 μM",has an effect on the post-entry process
same,Fig. 1I: Relative viral RNA to mock treated,"SARS-CoV-2 Delta variant [4]; Entry, first column group c0-c3",1.24 and 0.89 and 1.15
same,Fig. 1I: Relative viral RNA to mock treated,"SARS-CoV-2 Delta variant [4]; Entry, third column group c10-c13",0.033 and 0.037 and 0.04
same,Fig. 1I: Relative viral RNA to mock treated,"SARS-CoV-2 Delta variant [4]; Post-entry, first column group c0-c3",0.007 and 0.006
same,Fig. 1I: Relative viral RNA to mock treated,"SARS-CoV-2 Delta variant [4]; Post-entry, third column group c10-c13",1.03 and 0.85 and 0.71
same,decrease of virus titer in the lung,SARS-CoV-2 Delta variant [5],greater than 10^3 fold
same,expression of Il6,SARS-CoV-2 Delta variant [5],decreased the expression of Il6
same,peak of body weight loss,SARS-CoV-2 Delta variant [5],7% and 5%
same,viral loads in nasal turbinates,SARS-CoV-2 Delta variant [5],limited effect
same,viral loads in the lungs,SARS-CoV-2 Delta variant [5],decreased
same,Fig. 4H: Relative Il6 RNA level,SARS-CoV-2 Delta variant [5]; 30 mg/kg,1.88 and 3.04 and 1.64 and 1.56
same,Fig. 4J: Relative Cxcl10 RNA level,SARS-CoV-2 Delta variant [5]; 30 mg/kg,5.91 and 3.38 and 3.37 and 5.99
same,Fig. 4C: Viral RNA,SARS-CoV-2 Delta variant [5]; 200 mg/kg,184497 and 149004 and 250553 and 219560
same,Fig. 4H: Relative Il6 RNA level,SARS-CoV-2 Delta variant [5]; 200 mg/kg,1.73 and 2.57 and 2.07 and 2.20
same,Fig. 4J: Relative Cxcl10 RNA level,SARS-CoV-2 Delta variant [5]; 200 mg/kg,0.55 and 0.70 and 0.74 and 0.64
same,signal distribution of viral antigen in the lungs,SARS-CoV-2 Delta variant [6],limited
same,antiviral potency against Omicron variant (lineage BA.1),[7],remarkable antiviral potency
same,effect of CP-100356 on antiviral activity,SARS-CoV-2 Delta variant [1],enhanced
same,LDH release into basal culture medium,SARS-CoV-2 Delta variant [8],decreased
same,progeny virus titers,SARS-CoV-2 Delta variant [9],< 100
same,Infection with SARS-CoV-2 (immunofluorescence),SARS-CoV-2 Delta variant [10],inhibited
same,viral load in the lungs of contact hamsters,SARS-CoV-2 Delta variant [11]; […],no detectable viral titers
same,Fig. 2N: Virus titer,"SARS-CoV-2 Delta variant [11]; hamster, in vivo, 200 mg/kg",n.d.(=100)
same,Fig. 2N: Virus titer,"SARS-CoV-2 Delta variant [11]; second block c10-c12 (six animals: contact hamsters, 6 days after co-housing), […], 200 mg/kg",n.d.(=100)
same,Histopathological severity score,"SARS-CoV-2 Delta variant [12]; Fig. 5B, S-217622 dose group 30, individual animals",14 and 7 and 4 and 5
same,Histopathological severity score,"SARS-CoV-2 Delta variant [12]; Fig. 5B, S-217622 dose group 200, individual animals",3 and 5 and 4 and 7
same,Histopathological severity score,"SARS-CoV-2 Delta variant [12]; Fig. 5D, S-217622 dose group 30, individual animals",14 and 16 and 15 and 13
same,Histopathological severity score,"SARS-CoV-2 Delta variant [12]; Fig. 5D, S-217622 dose group 200, individual animals",17 and 19 and 20 and 6
same,lung pathology / histopathological findings of viral pneumonia,SARS-CoV-2 Delta variant [12],attenuated the lung pathology in a dose-dependent manner
same,viral RNA by in situ hybridization (ISH),SARS-CoV-2 Delta variant [12]; [13],decreased
same,Histopathological severity score,SARS-CoV-2 Delta variant [12]; [14],lower than the vehicle control group
same,viral RNA by in situ hybridization (ISH),SARS-CoV-2 Delta variant [12]; [14],undetectable
same,histopathological severity of viral pneumonia,SARS-CoV-2 Delta variant [12],neither MPV or S-217622 could attenuate
same,viral RNA by ISH,SARS-CoV-2 Delta variant [12],Positive signals for viral RNA were also detected
"CC(C)C(=O)OC[C@H]1O[C@@H](n2ccc(NO)nc2=O)[C@H](O)[C@@H]1O [Molnupiravir, reference compound]",Fig. 2H: Relative Ifng RNA level,SARS-CoV-2 Delta variant [3]; listed as MPV,3.06 and 2.07 and 2.71 and 2.27
same,Fig. 2I: Relative Il6 RNA level,SARS-CoV-2 Delta variant [3]; listed as MPV,2.40 and 3.11 and 2.02 and 2.46
same,Fig. 2J: Relative Il10 RNA level,SARS-CoV-2 Delta variant [3]; listed as MPV,3.33 and 2.30 and 2.69 and 2.83
same,Fig. 2K: Relative Cxcl10 RNA level,SARS-CoV-2 Delta variant [3]; listed as MPV,14.61 and 18.50 and 12.76 and 10.96
same,viral loads in nasal turbinates,SARS-CoV-2 Delta variant [5],limited effect
same,viral loads in the lungs,SARS-CoV-2 Delta variant [5],decreased
same,Fig. 4E: Virus titer,SARS-CoV-2 Delta variant [5]; listed as MPV,700000 and 600000 and 1200000
same,Fig. 4G: Relative Ifng RNA level,SARS-CoV-2 Delta variant [5]; listed as MPV,3.06 and 2.07 and 2.71 and 2.27
same,Fig. 4H: Relative Il6 RNA level,SARS-CoV-2 Delta variant [5]; listed as MPV,2.40 and 3.11 and 2.02 and 2.46
same,Fig. 4I: Relative Il10 RNA level,SARS-CoV-2 Delta variant [5]; listed as MPV,3.33 and 2.30 and 2.69 and 2.83
same,Fig. 4J: Relative Cxcl10 RNA level,SARS-CoV-2 Delta variant [5]; listed as MPV,14.61 and 18.50 and 12.76 and 10.96
same,Fig. 4K: Neutralizing antibody titer,SARS-CoV-2 Delta variant [5]; listed as MPV,640 and 1280
same,signal distribution of viral antigen in the lungs,SARS-CoV-2 Delta variant [6],decreased the viral distribution
same,viral load in the lungs of contact hamsters,SARS-CoV-2 Delta variant [11]; […],high viral load was detected
same,Fig. 2N: Virus titer,"SARS-CoV-2 Delta variant [11]; hamster, in vivo, listed as MPV",1250000 and 1400000 and 800000
same,Histopathological severity score,"SARS-CoV-2 Delta variant [12]; Fig. 5B, MPV group, individual animals, listed as MPV",17 and 13
same,Histopathological severity score,"SARS-CoV-2 Delta variant [12]; Fig. 5D, MPV group, individual animals, listed as MPV",17 and 12 and 18 and 19
same,lung pathology / histopathological findings of viral pneumonia,SARS-CoV-2 Delta variant [12],prominent
same,viral RNA by in situ hybridization (ISH),SARS-CoV-2 Delta variant [12]; [13],decreased
same,histopathological severity of viral pneumonia,SARS-CoV-2 Delta variant [12],neither MPV or S-217622 could attenuate
same,viral RNA by ISH,SARS-CoV-2 Delta variant [12],Positive signals for viral RNA were also detected
